Measured values reported in patent publication US9549932B2, “2-(morpholin-4-yl)-1,7-naphthyridines” (BAYER PHARMA AKTIENGESELLSCHAFT, priority 2014, dated 2017).
pIC50: −log10 of the molar value. Structures can show the parent of a compound that is named as a salt. Where two headings read alike, the source gives them in different places.

Target: full-length human ATR protein (Homo sapiens (Human), UniProt Q13535)
Experiment: Binding assay ATR (TR-FRET tracer displacement)
Conditions: TR-FRET
From the text: To determine of binding activity of the test compounds, full-length human ATR protein was expressed and purified together with ATRIP as described above. Furthermore, a fluorescently labelled compound (either tracer A or B as described above) was used as a tracer molecule. Detection of the binding event of the tracer was achieved by time-resolved fluorescence energy transfer (TR-FRET). We used an anti-GST-Terbium antibody (CisBio) that binds to the GST-tag at the N-terminus of ATR-kinase. […] Displacement of the fluorescent tracer by a test compound leads to a reduction of the TR-FRET-signal.
For the assay 50 nl of a 100-fold concentrated solution of the test compound in DMSO was pipetted into a black low volume 384well microtiter plate (MTP, Greiner Bio-One, Frickenhausen, Germany). […] The ATR-working solution was incubated for 30 min at 22° C. prior to dispensing to pre-form the complex of antiGST-Tb+GST-ATR+ATRIP. Then, 3 μl of the ATR-working solution were added to the test compound and the mixture was incubated for 10 min at 22° C. to allow pre-binding of the test compounds to ATR/ATRIP. Then, 2 μl of a 100 nM solution of either tracer A or B in assay buffer were added to the ATR-working solution. The resulting mixture was incubated for 30 min at 22° C. […] The dilution series were prepared separately before the assay on the level of the 100 fold concentrated solutions in DMSO by serial 1:3.4 dilutions in duplicate values for each concentration. IC50 values were calculated by a 4 parameter fit using standard software (GraphPad prism or equivalent).

[1] = tracer A, read-out: ATR binding (tracer A) IC50
[2] = tracer B, read-out: ATR binding (tracer B) IC50

full-length human ATR protein, sequence (Q13535 other isoform, or with tags, fused parts or gaps): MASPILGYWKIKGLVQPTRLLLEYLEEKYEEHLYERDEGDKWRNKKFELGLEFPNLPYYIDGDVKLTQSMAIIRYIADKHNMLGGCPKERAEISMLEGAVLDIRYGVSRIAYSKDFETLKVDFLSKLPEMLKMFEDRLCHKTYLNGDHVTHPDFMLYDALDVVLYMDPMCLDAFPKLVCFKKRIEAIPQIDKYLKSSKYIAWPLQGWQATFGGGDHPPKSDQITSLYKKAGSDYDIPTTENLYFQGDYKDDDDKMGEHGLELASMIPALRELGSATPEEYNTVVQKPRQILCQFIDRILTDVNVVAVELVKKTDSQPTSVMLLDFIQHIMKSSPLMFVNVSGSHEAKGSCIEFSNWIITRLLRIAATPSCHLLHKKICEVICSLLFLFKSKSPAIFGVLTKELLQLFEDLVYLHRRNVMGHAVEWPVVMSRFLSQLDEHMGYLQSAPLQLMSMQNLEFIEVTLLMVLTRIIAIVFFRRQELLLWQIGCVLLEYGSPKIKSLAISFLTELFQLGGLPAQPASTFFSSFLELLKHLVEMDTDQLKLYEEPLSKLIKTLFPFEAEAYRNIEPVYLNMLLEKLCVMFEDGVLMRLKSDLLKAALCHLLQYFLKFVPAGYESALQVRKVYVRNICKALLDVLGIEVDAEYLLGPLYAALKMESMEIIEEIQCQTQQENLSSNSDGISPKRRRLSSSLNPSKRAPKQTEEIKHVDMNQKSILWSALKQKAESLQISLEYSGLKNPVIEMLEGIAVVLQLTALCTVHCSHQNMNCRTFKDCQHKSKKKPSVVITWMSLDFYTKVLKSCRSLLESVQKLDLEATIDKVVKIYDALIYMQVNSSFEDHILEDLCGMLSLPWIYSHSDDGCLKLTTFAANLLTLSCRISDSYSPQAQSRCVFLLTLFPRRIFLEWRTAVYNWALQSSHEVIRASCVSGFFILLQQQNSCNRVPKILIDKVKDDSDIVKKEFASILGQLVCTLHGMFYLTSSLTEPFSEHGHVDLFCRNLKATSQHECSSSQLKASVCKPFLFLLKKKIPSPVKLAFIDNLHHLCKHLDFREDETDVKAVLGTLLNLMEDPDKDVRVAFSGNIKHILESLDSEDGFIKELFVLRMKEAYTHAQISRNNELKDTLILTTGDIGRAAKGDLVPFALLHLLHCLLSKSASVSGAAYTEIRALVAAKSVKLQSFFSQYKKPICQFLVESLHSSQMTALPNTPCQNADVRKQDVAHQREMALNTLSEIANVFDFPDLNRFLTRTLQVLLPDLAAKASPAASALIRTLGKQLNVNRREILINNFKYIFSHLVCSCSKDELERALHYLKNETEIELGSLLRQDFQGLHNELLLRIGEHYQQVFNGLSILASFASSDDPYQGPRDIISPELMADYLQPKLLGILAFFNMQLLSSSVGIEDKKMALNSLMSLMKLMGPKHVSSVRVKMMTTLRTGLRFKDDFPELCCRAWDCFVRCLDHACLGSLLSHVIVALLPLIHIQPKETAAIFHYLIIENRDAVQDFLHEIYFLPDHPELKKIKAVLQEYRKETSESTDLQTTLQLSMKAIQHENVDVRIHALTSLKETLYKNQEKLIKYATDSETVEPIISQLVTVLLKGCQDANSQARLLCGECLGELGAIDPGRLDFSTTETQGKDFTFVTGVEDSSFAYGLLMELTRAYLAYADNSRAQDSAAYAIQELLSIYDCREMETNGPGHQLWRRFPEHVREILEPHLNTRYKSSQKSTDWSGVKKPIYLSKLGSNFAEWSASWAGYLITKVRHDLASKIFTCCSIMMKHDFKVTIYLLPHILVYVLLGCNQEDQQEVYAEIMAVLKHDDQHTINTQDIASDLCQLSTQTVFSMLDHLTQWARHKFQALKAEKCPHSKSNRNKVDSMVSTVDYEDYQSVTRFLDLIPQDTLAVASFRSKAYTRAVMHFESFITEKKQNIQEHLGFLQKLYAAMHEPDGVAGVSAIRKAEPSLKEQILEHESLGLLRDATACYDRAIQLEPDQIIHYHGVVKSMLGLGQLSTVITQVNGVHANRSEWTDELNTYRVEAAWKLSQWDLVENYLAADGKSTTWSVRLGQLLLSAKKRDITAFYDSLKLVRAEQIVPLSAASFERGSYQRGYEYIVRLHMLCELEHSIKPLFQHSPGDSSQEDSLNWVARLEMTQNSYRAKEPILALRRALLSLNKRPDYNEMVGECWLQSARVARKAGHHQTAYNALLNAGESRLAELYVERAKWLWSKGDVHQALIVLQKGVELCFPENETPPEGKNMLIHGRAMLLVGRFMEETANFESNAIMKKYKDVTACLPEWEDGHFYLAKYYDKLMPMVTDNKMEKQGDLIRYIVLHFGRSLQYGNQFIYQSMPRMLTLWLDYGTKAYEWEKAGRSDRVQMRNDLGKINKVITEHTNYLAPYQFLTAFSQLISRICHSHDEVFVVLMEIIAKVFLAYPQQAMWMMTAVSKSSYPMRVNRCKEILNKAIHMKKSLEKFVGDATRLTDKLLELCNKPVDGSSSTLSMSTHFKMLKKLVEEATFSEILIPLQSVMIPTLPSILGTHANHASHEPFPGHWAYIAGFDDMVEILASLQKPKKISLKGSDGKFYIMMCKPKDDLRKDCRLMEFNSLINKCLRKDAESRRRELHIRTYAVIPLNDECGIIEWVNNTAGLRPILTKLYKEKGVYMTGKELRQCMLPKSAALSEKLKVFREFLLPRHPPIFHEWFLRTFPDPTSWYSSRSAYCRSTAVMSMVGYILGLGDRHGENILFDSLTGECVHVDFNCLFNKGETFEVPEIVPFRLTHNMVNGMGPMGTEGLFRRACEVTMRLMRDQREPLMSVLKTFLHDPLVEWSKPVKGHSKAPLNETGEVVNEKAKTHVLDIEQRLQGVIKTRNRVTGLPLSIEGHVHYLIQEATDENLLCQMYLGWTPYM
full-length human ATR protein, sequence (Q8WXE1 other isoform, or with tags, fused parts or gaps partner): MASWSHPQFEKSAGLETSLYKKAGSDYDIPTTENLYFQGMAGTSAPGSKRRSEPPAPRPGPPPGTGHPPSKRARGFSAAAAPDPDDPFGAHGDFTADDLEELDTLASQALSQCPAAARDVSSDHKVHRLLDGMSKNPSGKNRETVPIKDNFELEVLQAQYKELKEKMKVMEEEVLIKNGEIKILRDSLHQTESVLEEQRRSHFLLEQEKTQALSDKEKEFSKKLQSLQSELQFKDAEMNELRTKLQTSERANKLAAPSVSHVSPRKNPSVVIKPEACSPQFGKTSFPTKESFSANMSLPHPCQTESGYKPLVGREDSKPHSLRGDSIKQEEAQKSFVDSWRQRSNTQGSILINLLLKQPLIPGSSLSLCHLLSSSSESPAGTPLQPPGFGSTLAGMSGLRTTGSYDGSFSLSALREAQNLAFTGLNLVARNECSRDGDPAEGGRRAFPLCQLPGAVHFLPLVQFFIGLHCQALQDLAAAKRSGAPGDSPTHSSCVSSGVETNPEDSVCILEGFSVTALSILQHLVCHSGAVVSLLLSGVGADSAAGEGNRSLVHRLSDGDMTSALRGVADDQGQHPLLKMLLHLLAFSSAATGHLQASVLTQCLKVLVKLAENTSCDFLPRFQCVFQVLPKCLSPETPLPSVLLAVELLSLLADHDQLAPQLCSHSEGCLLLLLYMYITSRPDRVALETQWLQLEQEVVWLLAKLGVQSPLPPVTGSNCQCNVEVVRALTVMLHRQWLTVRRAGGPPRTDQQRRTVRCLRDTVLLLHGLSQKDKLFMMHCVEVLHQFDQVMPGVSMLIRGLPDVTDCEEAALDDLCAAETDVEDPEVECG

Structure (SMILES)	pIC50 [1]	pIC50 [2]
C[C@@H]1CN[C@@H](C)CN1c1cc(N2CCOCC2)nc2c(-c3ccn[nH]3)nccc12 (relative stereo) [Example 178, 4-[(trans)-2,5-dimethylpiperazin-1-yl]-2-(morpholin-4-yl)-8-(1H-pyrazol-5-yl)-1,7-naphthyridine]	6.42	
C[C@@H]1COCCN1c1cc(N=S(C)(=O)c2ccccc2F)c2ccnc(-c3ccn[nH]3)c2n1 (single isomer, unassigned) [Example 140]	7.12	
C[C@@H]1COCCN1c1cc(N=S(C)(=O)c2ccccc2F)c2ccnc(-c3ccn[nH]3)c2n1 (single isomer, unassigned) [Example 141]	6.41	
C[C@@H]1COCCN1c1cc([C@H]2C[C@@H]2C)c2ccnc(-c3ccn[nH]3)c2n1 (stereo in doubt) [Example 171, 4-[(trans)-2-methylcyclopropyl]-2-[(3R)-3-methylmorpholin-4-yl]-8-(1H-pyrazol-5-yl)-1,7-naphthyridine]	7.02	
NC(=O)[C@H]1CCCN1c1cc(N2CCOCC2)nc2c(-c3ccn[nH]3)nccc12 (stereo in doubt) [Example 428, 1-[2-(morpholin-4-yl)-8-(1H-pyrazol-5-yl)-1,7-naphthyridin-4-yl]-prolinamide]	7.16	
OC[C@H]1CCCN(c2cc(N3CCOCC3)nc3c(-c4ccn[nH]4)nccc23)C1 (stereo in doubt) [Example 437, {1-[2-(morpholin-4-yl)-8-(1H-pyrazol-5-yl)-1,7-naphthyridin-4-yl]piperidin-3-yl}methanol]	6.93	
CCOC(=O)N=S(C)(=O)c1ccc(-c2cc(N3CCOCC3)nc3c(-c4ccn[nH]4)nccc23)cc1 (stereo not drawn) [Example 1]	7.43	7.62
CS(=N)(=O)c1ccc(-c2cc(N3CCOCC3)nc3c(-c4ccn[nH]4)nccc23)cc1 (stereo not drawn) [Example 2]	7.02	7.42
CS(=O)(=O)c1ccc(-c2cc(N3CCOCC3)nc3c(-c4ccn[nH]4)nccc23)cn1 [Example 3, 4-[6-(methylsulfonyl)pyridin-3-yl]-2-(morpholin-4-yl)-8-(1H-pyrazol-5-yl)-1,7-naphthyridine]	7.24	7.41
C1=C(c2cc(N3CCOCC3)nc3c(-c4cc[nH]n4)nccc23)CCOC1 [Example 4, 4-(3,6-dihydro-2H-pyran-4-yl)-2-(morpholin-4-yl)-8-(1H-pyrazol-3-yl)-[1,7]naphthyridine]	7.21	7.36
CN=S(C)(=O)c1ccc(-c2cc(N3CCOCC3)nc3c(-c4ccn[nH]4)nccc23)cc1 (stereo not drawn) [Example 5, 4-[4-(N,S-dimethylsulfonimidoyl)phenyl]-2-[morpholin-4-yl]-8-(1H-pyrazol-5-yl)-1,7-naphthyridine]	7.19	7.47
Cc1cc(S(C)(=O)=O)ncc1-c1cc(N2CCOCC2)nc2c(-c3ccn[nH]3)nccc12 [Example 6, 4-[4-methyl-6-(methylsulfonyl)pyridin-3-yl]-2-(morpholin-4-yl)-8-(1H-pyrazol-5-yl)-1,7-naphthyridine]	7.16	
CS(=O)(=O)c1ccc(-c2cc(N3CCOCC3)nc3c(-c4cc[nH]n4)nccc23)cc1 [Example 7, 4-(4-methanesulphonylphenyl)-2-(morpholin-4-yl)-8-(1H-pyrazol-3-yl)-[1,7]naphthyridine]	7.23	7.58
CS(=O)(=O)c1ccccc1-c1cc(N2CCOCC2)nc2c(-c3cc[nH]n3)nccc12 [Example 8, 4-(2-methanesulphonylphenyl)-2-(morpholin-4-yl)-8-(1H-pyrazol-3-yl)-[1,7]naphthyridine hydrochloride]	6.93	7.16
COP(=O)(OC)c1ccc(-c2cc(N3CCOCC3)nc3c(-c4ccn[nH]4)nccc23)cc1 [Example 9, Dimethyl {4-[2-(morpholin-4-yl)-8-(1H-pyrazol-5-yl)-1,7-naphthyridin-4-yl]phenyl}phosphonate]	6.92	6.90
C=C(C)c1cc(N2CCOCC2)nc2c(-c3cc[nH]n3)nccc12 [Example 10, 4-isopropenyl-2-(morpholin-4-yl)-8-(1H-pyrazol-3-yl)-[1,7]naphthyridine]	6.90	7.36
c1ccc(-c2cc(N3CCOCC3)nc3c(-c4cc[nH]n4)nccc23)cc1 [Example 11, 2-(morpholin-4-yl)-4-phenyl-8-(1H-pyrazol-3-yl)-[1,7]naphthyridine]	6.87	7.06

Structure (SMILES)	pIC50 [1]	pIC50 [2]
CCS(=N)(=O)c1ccc(-c2cc(N3CCOCC3)nc3c(-c4ccn[nH]4)nccc23)cc1 (stereo not drawn) [Example 12, 4-[4-(S-ethylsulfonimidoyl)phenyl]-2-(morpholin-4-yl)-8-(1H-pyrazol-5-yl)-1,7-naphthyridine]	6.87	7.33
CCOC(=O)N=S(C)(=O)c1cccc(-c2cc(N3CCOCC3)nc3c(-c4ccn[nH]4)nccc23)c1 (stereo not drawn) [Example 13]	6.85	6.98
CN1CC=C(c2cc(N3CCOCC3)nc3c(-c4ccn[nH]4)nccc23)CC1 [Example 14, 4-(1-methyl-1,2,3,6-tetrahydropyridin-4-yl)-2-(morpholin-4-yl)-8-(1H-pyrazol-5-yl)-1,7-naphthyridine]	6.79	7.10
CS(=O)(=O)c1cccc(-c2cc(N3CCOCC3)nc3c(-c4cc[nH]n4)nccc23)c1 [Example 15, 4-(3-methanesulphonylphenyl)-2-(morpholin-4-yl)-8-(1H-pyrazol-3-yl)-[1,7]naphthyridine]	6.79	6.76
Cc1cc(-c2cc(N3CCOCC3)nc3c(-c4ccn[nH]4)nccc23)cnc1S(C)(=O)=O [Example 16, 4-[5-methyl-6-(methylsulfonyl)pyridin-3-yl]-2-(morpholin-4-yl)-8-(1H-pyrazol-5-yl)-1,7-naphthyridine]	6.76	
C1=C(c2cc(N3CCOCC3)nc3c(-c4ccn[nH]4)nccc23)CCNC1 [Example 17, 2-(morpholin-4-yl)-8-(1H-pyrazol-5-yl)-4-(1,2,3,6-tetrahydropyridin-4-yl)-1,7-naphthyridine]	6.73	6.93
c1cc2c(C3CC3)cc(N3CCOCC3)nc2c(-c2cc[nH]n2)n1 [Example 18, 4-cyclopropyl-2-(morpholin-4-yl)-8-(1H-pyrazol-3-yl)-[1,7]naphthyridine]	6.64	7.12
CS(=N)(=O)c1cccc(-c2cc(N3CCOCC3)nc3c(-c4ccn[nH]4)nccc23)c1 (stereo not drawn) [Example 19]	6.53	6.74
Cc1cc(N2CCOCC2)nc2c(-c3cc[nH]n3)nccc12 [Example 20, 4-methyl-2-(morpholin-4-yl)-8-(1H-pyrazol-3-yl)-[1,7]naphthyridine hydrochloride]	6.09	6.49
CS(=O)(=O)c1nc(-c2cc(N3CCOCC3)nc3c(-c4ccn[nH]4)nccc23)cs1 [Example 21, 4-[2-(methylsulfonyl)-1,3-thiazol-4-yl]-2-(morpholin-4-yl)-8-(1H-pyrazol-5-yl)-1,7-naphthyridine]	6.72	
O=c1cc(-c2cc(N3CCOCC3)nc3c(-c4ccn[nH]4)nccc23)cc[nH]1 [Example 22, 4-[2-(morpholin-4-yl)-8-(1H-pyrazol-5-yl)-1,7-naphthyridin-4-yl]pyridin-2(1H)-one]	6.33	
Oc1ccc(-c2cc(N3CCOCC3)nc3c(-c4ccn[nH]4)nccc23)cn1 [Example 23, 5-[2-(morpholin-4-yl)-8-(1H-pyrazol-5-yl)-1,7-naphthyridin-4-yl]pyridin-2(1H)-one]	6.35	
CS(=O)(=O)c1ccc(-c2cc(N3CCOCC3)nc3c(-c4ccn[nH]4)nccc23)c(F)c1 [Example 24, 4-[2-fluoro-4-(methylsulfonyl)phenyl]-2-(morpholin-4-yl)-8-(1H-pyrazol-5-yl)-1,7-naphthyridine]	7.42	7.68
CC(C)S(=N)(=O)c1ccc(-c2cc(N3CCOCC3)nc3c(-c4ccn[nH]4)nccc23)cc1 (stereo not drawn) [Example 25, 2-(morpholin-4-yl)-4-{4-[S-(propan-2-yl)sulfonimidoyl]phenyl}-8-(1H-pyrazol-5-yl)-1,7-naphthyridine]	6.96	7.12
C[C@@H]1COCCN1c1cc(-c2ccc(S(C)(=O)=O)cc2)c2ccnc(-c3cc[nH]n3)c2n1 [Example 26, 4-(4-methanesulphonylphenyl)-2-((R)-3-methylmorpholin-4-yl)-8-(2H-pyrazol-3-yl)-[1,7]naphthyridine]	7.81	8.20
C[C@@H]1COCCN1c1cc(-c2ccccc2)c2ccnc(-c3cc[nH]n3)c2n1 [Example 27, 2-((R)-3-methylmorpholin-4-yl)-4-phenyl-8-(2H-pyrazol-3-yl)-[1,7]naphthyridine]	7.76	7.96
C[C@@H]1COCCN1c1cc(-c2cccc(S(C)(=O)=O)c2)c2ccnc(-c3cc[nH]n3)c2n1 [Example 28, 4-(3-methanesulphonylphenyl)-2-((R)-3-methylmorpholin-4-yl)-8-(2H-pyrazol-3-yl)-[1,7]naphthyridine]	7.75	8.08
